# Target: T1, Ba/F3 cell EGFR Exon20 ins NPH (Homo sapiens, UniProt P00533, INS773NPH)
# T1 construct: expressed in transfected cells; host or cells: Ba/F3
# Assay: Ba/F3 cell proliferation suppression, EGFR Exon20 ins NPH
# Format: cell-based
# Conditions: GI50 class; Ba/F3 cell line with NPH inserted at Exon20 of EGFR; 72 hours
# Method in brief: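 Cells were seeded 24 h before dosing and then treated for 72 hours with compound at final concentrations of 0.3 nM to 50 um. Live cells were measured by CellTiter-Glo luminescence, and GI50 values were derived from growth ratio relative to control across three repeats.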
row,Structure (SMILES),Ba/F3 (NPH) Activity
1,"C=CC(=O)Nc1cc(Nc2cc(N3OCC[C@@H]3c3cc(F)ccc3F)ncn2)c(OC)cc1N1CC[C@@H](N(C)C)C1 [compound 848, N-(5-((6-(2,5-((R)-3-difluorophenyl)isoxazolidine-2-yl)pyrimidine-4-yl)amino)-2-((R)-3-(dimethylamino)pyrolidine-1-yl)-4-methoxyphenyl) acrylamide]",A (GI50 < 50 nM)
2,"C=CC(=O)Nc1cc(Nc2cc(N3OCC[C@@H]3c3ccc(F)c(F)c3)ncn2)c(OC)cc1N1CCC(N2C[C@@H](C)O[C@@H](C)C2)CC1 [compound 543, N-(5-((6-((R)-3-(3,4-difluorophenyl)isoxazolidine-2-yl)pyrimidine-4-yl)amino)-2-(4-((2S,6R)-2,6-dimethylmorpholino)piperidine-1-yl)-4-methoxyphenyl) acrylamide]",A (GI50 < 50 nM)
3,"C=CC(=O)Nc1cc(Nc2cc(N3OCC[C@@H]3Cc3cccc(Cl)c3Cl)ncn2)c(OC)cc1N1CCC(N2CCN(C3CC3)[C@@H](C)C2)CC1 [compound 981, N-(2-(4-((S)-4-cyclopropyl-3-methylpiperazine-1-yl)piperidine-1-yl)-5-((6-((S)-3-(2,3-dichlorobenzyl)isoxazolidine-2-yl)pyrimidine-4-yl)amino)-4-methoxyphenyl) acrylamide]",A (GI50 < 50 nM)
4,"C=CC(=O)Nc1cc(Nc2cc(N3OCC[C@@H]3c3cccc(F)c3)ncn2)c(OC)cc1N1C[C@H]2C[C@@H]1CO2 [compound 833, N-(2-((1R,4R)-2-oxa-5-azabicyclo[2.2.1]heptane-5-yl)-5-((6-((R)-3-(3-fluorophenyl)isoxazolidine-2-yl)pyrimidine-4-yl)amino)-4-methoxyphenyl) acrylamide]",A (GI50 < 50 nM)
5,"C=CC(=O)Nc1cc(Nc2cc(N3OCC[C@@H]3c3cc(F)cc(F)c3)ncn2)c(OC)cc1N1CCN(C2CC2)CC1 [compound 438, N-(2-(4-cyclopropylpiperazine-1-yl)-5-((6-((R)-3-(3,5-difluorophenyl)isoxazolidine-2-yl)pyrimidine-4-yl)amino)-4-methoxyphenyl) acrylamide]",A (GI50 < 50 nM)
6,"C=CC(=O)Nc1cc(Nc2cc(N3OCC[C@@H]3c3cccc(C)c3F)ncn2)c(OC)cc1N1CC[C@@H](N(C)C)C1 [compound 860, N-(2-((R)-3-(dimethylamino)pyrolidine-1-yl)-5-((6-((R)-3-(2-fluoro-3-methylphenyl)isoxazolidine-2-yl)pyrimidine-4-yl)amino)-4-methoxyphenyl) acrylamide]",A (GI50 < 50 nM)
7,"C=CC(=O)Nc1cc(Nc2cc(N3OCC[C@@H]3c3ccccc3)ncn2)c(OC)cc1N1CCC(N2CCN(C3CC3)CC2)CC1 [Example 56, N-(2-(4-(4-cyclopropylpiperazine-1-yl)piperidine-1-yl)-4-methoxy-5-((6-((R)-3-phenylisoxazolidine-2-yl)pyrimidine-4-yl)amino)phenyl) acrylamide]",A (GI50 < 50 nM)
8,"C=CC(=O)Nc1cc(Nc2cc(N3OCC[C@@H]3c3cc(F)ccc3F)ncn2)c(OC)cc1N1CCN(CCC)CC1 [compound 300, N-(5-((6-((R)-3-(2,5-difluorophenyl)isoxazolidine-2-yl)pyrimidine-4-yl)amino)-4-methoxy-2-(4-propylpiperazine-1-yl)phenyl)acrylamide]",A (GI50 < 50 nM)
9,"C=CC(=O)Nc1cc(Nc2cc(N3OCC[C@@H]3c3cccc(OC)c3)ncn2)c(OC)cc1N1CCC(N2CCN(C(C)=O)CC2)CC1 [compound 779, N-(2-(4-(4-acetylpiperazine-1-yl)piperidine-1-yl)-4-methoxy-5-((6-((R)-3-(3-methoxyphenyl)isoxazolidine-2-yl)pyrimidine-4-yl)amino)phenyl)acrylamide]",A (GI50 < 50 nM)
10,"C=CC(=O)Nc1cc(Nc2cc(N3OCC[C@@H]3c3cccc(F)c3Cl)ncn2)c(OC)cc1N1CCC(N2CC3CCC(C2)N3C2CC2)CC1 [Example 142, N-(5-((6-((R)-3-(2-chloro-3-fluorophenyl)isoxazolidine-2-yl)pyrimidine-4-yl)amino)-2-(4-(8-cyclopropyl-3,8-diazabicyclo[3.2.1]octan-3-yl)piperidine-1-yl)-4-methoxyphenyl) acrylamide]",A (GI50 < 50 nM)
11,"C=CC(=O)Nc1cc(Nc2cc(N3OCC[C@@H]3c3cc(F)cc(F)c3)ncn2)c(OC)cc1N1CCC(N2CCN(C(C)C)CC2)CC1 [Example 265, N-(5-((6-((R)-3-(3,5-difluorophenyl)isoxazolidine-2-yl)pyrimidine-4-yl)amino)-2-(4-(4-isopropylpiperazine-1-yl)piperidine-1-yl)-4-methoxyphenyl) acrylamide]",A (GI50 < 50 nM)

# Next, values leading:
row,Ba/F3 (NPH) Activity,Structure (SMILES)
1,A (GI50 < 50 nM),"C=CC(=O)Nc1cc(Nc2cc(N3OCC[C@@H]3c3cccc(F)c3Cl)ncn2)c(OC)cc1N1CCC(N2CCN(CC)CC2)CC1 [compound 602, N-(5-((6-((R)-3-(2-chloro-3-fluorophenyl)isoxazolidine-2-yl)pyrimidine-4-yl)amino)-2-(4-(4-thylpiperazine-1-yl)piperidine-1-yl)-4-methoxyphenyl) acrylamide]"
2,A (GI50 < 50 nM),"C=CC(=O)Nc1cc(Nc2cc(N3OCC[C@@H]3c3cc(F)cc(F)c3)ncn2)c(OC)cc1N1CCC(N2CCN(C3CC3)C(C)(C)C2)CC1 [Example 106, N-(2-(4-(4-cyclopropyl-3,3-dimethylpiperazine-1-yl)piperidine-1-yl)-5-((6-((R)-3-(3,5-difluorophenyl)isoxazolidine-2-yl)pyrimidine-4-yl)amino)-4-methoxyphenyl) acrylamide]"
3,A (GI50 < 50 nM),"C=CC(=O)Nc1cc(Nc2cc(N3OCC[C@@H]3c3cccc(C)c3F)ncn2)c(OC)cc1N1CCN(CC)CC1 [compound 847, N-(2-(4-ethylpiperazine-1-yl)-5-((6-((R)-3-(2-fluoro-3-methylphenyl)isoxazolidine-2-yl)pyrimidine-4-yl)amino)-4-methoxyphenyl) acrylamide]"
4,A (GI50 < 50 nM),"C=CC(=O)Nc1cc(Nc2cc(N3OCC[C@@H]3c3cccc(Cl)c3Cl)ncn2)c(OC)cc1N1CCN(C2CC2)[C@H](C)C1 [compound 564, N-(2-((R)-4-cyclopropyl-3-methylpiperazine-1-yl)-5-((6-((R)-3-(2,3-dichlorophenyl)isoxazolidine-2-yl)pyrimidine-4-yl)amino)-4-methoxyphenyl) acrylamide]"
5,A (GI50 < 50 nM),"C=CC(=O)Nc1cc(Nc2cc(N3OCC[C@@H]3c3ccc(Cl)c(F)c3)ncn2)c(OC)cc1N1CCC(N2C[C@@H]3C[C@H]2CO3)CC1 [compound 802, N-(2-(4-((1S,4S)-2-oxa-5-azabicyclo [2.2.1]heptane-5-yl)piperidine-1-yl)-5-((6-((R)-3-(4-chloro-3-fluorophenyl)isoxazolidine-2-yl)pyrimidine-4-yl)amino)-4-methoxyphenyl) acrylamide]"
6,A (GI50 < 50 nM),"C=CC(=O)Nc1cc(Nc2cc(N3OCC[C@@H]3Cc3cccc(F)c3)ncn2)c(OC)cc1N1CCC(N2C[C@H]3C[C@@H]2CO3)CC1 [compound 998, N-(2-(4-((1R,4R)-2-oxa-5-azabicyclo [2.2.1]heptane-5-yl)piperidine-1-yl)-5-((6-((S)-3-(3-fluorobenzyl)isoxazolidine-2-yl)pyrimidine-4-yl)amino)-4-methoxyphenyl) acrylamide]"

# Source: US12157730B2, “Heteroaryl derivative, method for producing same, and pharmaceutical composition comprising same as effective component” (VORONOI INC., priority 2019, dated 2024)
